Results published in ChEMBL document CHEMBL1131684, “Preparation of amino acid conjugates of betulinic acid with activity against human melanoma” (Bioorg Med Chem Lett, 1999).
Values after ≈ are worked out from the molar mass of the structure shown.

Key:
[1] = tested on: KB; experiment: In vitro cytotoxicity (antitumor activity) against human epidermoid carcinoma of mouth cell line (KB); type: functional; details: read-out: ED50 (the source's name)
[2] = tested on: SK-MEL-2; experiment: In vitro cytotoxicity (antitumor activity) against human melanoma (MEL-2) cell lines; type: functional; details: read-out: ED50 (the source's name)
[3] = Water solubility of the compound; type: ADME; details: buffer

SMILES	EC50 [1] [µg/mL]	EC50 [2] [µg/mL]	S [3] [Dilution factor]
C=C(C)[C@@H]1CC[C@]2(C(=O)N[C@H](C(=O)OC)[C@@H](C)CC)CC[C@]3(C)[C@H](CC[C@@H]4[C@@]5(C)CC[C@H](O)C(C)(C)[C@@H]5CC[C@]43C)[C@@H]12	> 20	> 20	
C=C(C)[C@@H]1CC[C@]2(C(=O)N[C@H](C(=O)O)[C@@H](C)CC)CC[C@]3(C)[C@H](CC[C@@H]4[C@@]5(C)CC[C@H](O)C(C)(C)[C@@H]5CC[C@]43C)[C@@H]12	> 20	> 20	
C=C(C)[C@@H]1CC[C@]2(C(=O)N[C@@H](Cc3ccccc3)C(=O)OC)CC[C@]3(C)[C@H](CC[C@@H]4[C@@]5(C)CC[C@H](O)C(C)(C)[C@@H]5CC[C@]43C)[C@@H]12	> 20	9 (≈ 14.6 µM)	5
C=C(C)[C@@H]1CC[C@]2(C(=O)N[C@@H](CC(=O)OC)C(=O)OC)CC[C@]3(C)[C@H](CC[C@@H]4[C@@]5(C)CC[C@H](O)C(C)(C)[C@@H]5CC[C@]43C)[C@@H]12	> 20	> 20	
C=C(C)[C@@H]1CC[C@]2(C(=O)N[C@@H](CCC(=O)O)C(=O)O)CC[C@]3(C)[C@H](CC[C@@H]4[C@@]5(C)CC[C@H](O)C(C)(C)[C@@H]5CC[C@]43C)[C@@H]12	> 20	> 20	
C=C(C)[C@@H]1CC[C@]2(C(=O)NCC(=O)OC)CC[C@]3(C)[C@H](CC[C@@H]4[C@@]5(C)CC[C@H](O)C(C)(C)[C@@H]5CC[C@]43C)[C@@H]12	> 20	10.2 (≈ 19.3 µM)	50
C=C(C)[C@@H]1CC[C@]2(C(=O)N[C@@H](Cc3c[nH]c4ccccc34)C(=O)OC)CC[C@]3(C)[C@H](CC[C@@H]4[C@@]5(C)CC[C@H](O)C(C)(C)[C@@H]5CC[C@]43C)[C@@H]12	> 20	> 20	
C=C(C)[C@@H]1CC[C@]2(C(=O)N3CCC[C@H]3C(=O)O)CC[C@]3(C)[C@H](CC[C@@H]4[C@@]5(C)CC[C@H](O)C(C)(C)[C@@H]5CC[C@]43C)[C@@H]12	> 20	13.1 (≈ 23.7 µM)	20
C=C(C)[C@@H]1CC[C@]2(C(=O)N[C@H](C(=O)O)C(C)C)CC[C@]3(C)[C@H](CC[C@@H]4[C@@]5(C)CC[C@H](O)C(C)(C)[C@@H]5CC[C@]43C)[C@@H]12	9 (≈ 16.2 µM)	9 (≈ 16.2 µM)	20
C=C(C)[C@@H]1CC[C@]2(C(=O)N[C@@H](Cc3ccc(O)cc3)C(=O)OC)CC[C@]3(C)[C@H](CC[C@@H]4[C@@]5(C)CC[C@H](O)C(C)(C)[C@@H]5CC[C@]43C)[C@@H]12	> 20	> 20	
C=C(C)[C@@H]1CC[C@]2(C(=O)N[C@@H](CCSC)C(=O)O)CC[C@]3(C)[C@H](CC[C@@H]4[C@@]5(C)CC[C@H](O)C(C)(C)[C@@H]5CC[C@]43C)[C@@H]12	> 20	9 (≈ 15.3 µM)	5
C=C(C)[C@@H]1CC[C@]2(C(=O)N[C@@H](CC(=O)O)C(=O)O)CC[C@]3(C)[C@H](CC[C@@H]4[C@@]5(C)CC[C@H](O)C(C)(C)[C@@H]5CC[C@]43C)[C@@H]12	> 20	> 20	
C=C(C)[C@@H]1CC[C@]2(C(=O)N[C@@H](CC(C)C)C(=O)OC)CC[C@]3(C)[C@H](CC[C@@H]4[C@@]5(C)CC[C@H](O)C(C)(C)[C@@H]5CC[C@]43C)[C@@H]12	> 20	6.2 (≈ 10.6 µM)	5
C=C(C)[C@@H]1CC[C@]2(C(=O)N[C@@H](CCSC)C(=O)OC)CC[C@]3(C)[C@H](CC[C@@H]4[C@@]5(C)CC[C@H](O)C(C)(C)[C@@H]5CC[C@]43C)[C@@H]12	> 20	12.8 (≈ 21.3 µM)	5
C=C(C)[C@@H]1CC[C@]2(C(=O)N[C@@H](CCC(=O)OC)C(=O)OC)CC[C@]3(C)[C@H](CC[C@@H]4[C@@]5(C)CC[C@H](O)C(C)(C)[C@@H]5CC[C@]43C)[C@@H]12	> 20	15.3 (≈ 24.9 µM)	20
C=C(C)[C@@H]1CC[C@]2(C(=O)N[C@@H](Cc3ccccc3)C(=O)O)CC[C@]3(C)[C@H](CC[C@@H]4[C@@]5(C)CC[C@H](O)C(C)(C)[C@@H]5CC[C@]43C)[C@@H]12	> 20	> 20	
C=C(C)[C@@H]1CC[C@]2(C(=O)N3CCC[C@H]3C(=O)OC)CC[C@]3(C)[C@H](CC[C@@H]4[C@@]5(C)CC[C@H](O)C(C)(C)[C@@H]5CC[C@]43C)[C@@H]12	> 20	> 20	
C=C(C)[C@@H]1CC[C@]2(C(=O)N[C@@H](C)C(=O)O)CC[C@]3(C)[C@H](CC[C@@H]4[C@@]5(C)CC[C@H](O)C(C)(C)[C@@H]5CC[C@]43C)[C@@H]12	4.6 (≈ 8.72 µM)	1.5 (≈ 2.84 µM)	50
C=C(C)[C@@H]1CC[C@]2(C(=O)N[C@@H](Cc3ccc(O)cc3)C(=O)O)CC[C@]3(C)[C@H](CC[C@@H]4[C@@]5(C)CC[C@H](O)C(C)(C)[C@@H]5CC[C@]43C)[C@@H]12	> 20	> 20	
C=C(C)[C@@H]1CC[C@]2(C(=O)N[C@H](C(=O)OC)C(C)C)CC[C@]3(C)[C@H](CC[C@@H]4[C@@]5(C)CC[C@H](O)C(C)(C)[C@@H]5CC[C@]43C)[C@@H]12	> 20	2.1 (≈ 3.69 µM)	5
C=C(C)[C@@H]1CC[C@]2(C(=O)N[C@@H](Cc3c[nH]c4ccccc34)C(=O)O)CC[C@]3(C)[C@H](CC[C@@H]4[C@@]5(C)CC[C@H](O)C(C)(C)[C@@H]5CC[C@]43C)[C@@H]12	> 20	8.6 (≈ 13.4 µM)	10
C=C(C)[C@@H]1CC[C@]2(C(=O)N[C@@H](CC(C)C)C(=O)O)CC[C@]3(C)[C@H](CC[C@@H]4[C@@]5(C)CC[C@H](O)C(C)(C)[C@@H]5CC[C@]43C)[C@@H]12	> 20	9 (≈ 15.8 µM)	10
C=C(C)[C@@H]1CC[C@]2(C(=O)N[C@@H](C)C(=O)OC)CC[C@]3(C)[C@H](CC[C@@H]4[C@@]5(C)CC[C@H](O)C(C)(C)[C@@H]5CC[C@]43C)[C@@H]12	> 20	3.5 (≈ 6.46 µM)	30
C=C(C)[C@@H]1CC[C@]2(C(=O)NCC(=O)O)CC[C@]3(C)[C@H](CC[C@@H]4[C@@]5(C)CC[C@H](O)C(C)(C)[C@@H]5CC[C@]43C)[C@@H]12	> 20	4.2 (≈ 8.17 µM)	100
C=C(C)[C@@H]1CC[C@]2(C(=O)O)CC[C@]3(C)[C@H](CC[C@@H]4[C@@]5(C)CC[C@H](O)C(C)(C)[C@@H]5CC[C@]43C)[C@@H]12 [BETULINIC ACID]	> 20	4.2 (≈ 9.2 µM)	< 5
